# Reference: publication PMC5607274, “An iterative compound screening contest method for identifying target protein inhibitors using the tyrosine-protein kinase Yes” (Scientific Reports, 2017)
# Molecular target: T1, human recombinant Yes [a.a. 2–543 (end)] (Homo sapiens, UniProt P07947)
# T1 construct: human recombinant Yes [a.a; 2–543 (end)]; purchased BPS Bioscience 40488
# Test: ADP-Glo kinase assay, inhibition rates of Yes phosphorylation activity (first and second screening)
# Format: biochemical
# Conditions: first screening; mean of n = 4 wells; 10 μmol L−1 compound
# How it was run: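 Hits from a first pass were rescreened after re-dissolution from fresh powder. The first pass reported the mean inhibition rate of quadruplicate wells per compound. Activity was that of recombinant human Yes [a.a. 2–543] kinase, read out with the ADP-Glo ADP-detection method.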
# T1 sequence (P07947 2-543): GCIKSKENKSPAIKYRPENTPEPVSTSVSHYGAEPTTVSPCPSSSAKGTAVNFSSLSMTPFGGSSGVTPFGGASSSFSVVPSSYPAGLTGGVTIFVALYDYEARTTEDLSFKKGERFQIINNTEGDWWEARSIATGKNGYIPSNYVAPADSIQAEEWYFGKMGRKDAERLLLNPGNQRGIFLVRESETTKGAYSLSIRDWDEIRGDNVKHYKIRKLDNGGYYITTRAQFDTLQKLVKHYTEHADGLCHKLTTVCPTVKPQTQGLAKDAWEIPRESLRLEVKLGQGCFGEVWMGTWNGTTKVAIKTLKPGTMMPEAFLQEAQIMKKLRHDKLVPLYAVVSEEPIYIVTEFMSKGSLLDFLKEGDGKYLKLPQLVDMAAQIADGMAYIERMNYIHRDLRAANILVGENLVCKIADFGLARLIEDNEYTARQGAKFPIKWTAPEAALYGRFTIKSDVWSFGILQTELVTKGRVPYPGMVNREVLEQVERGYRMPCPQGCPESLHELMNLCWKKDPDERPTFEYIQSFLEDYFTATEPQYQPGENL
row,Compound,First screening IR (inhibition rate) [%]
1,CC(Sc1ncc(CO)n1C)c1cn(-c2ccccc2)nn1 (centres unmarked) [Compound Z1419493384],-8
2,O=C(CCNC(=O)c1cc2cc(F)ccc2[nH]1)Nc1ccccn1 [Compound Z649200126],-10
3,CCCCCn1c(N)c(C(=O)NCCN2CCOCC2)c2nc3ccccc3nc21 [Compound Z56872965],48
4,CN(Cc1ccccc1)c1nc(CN2CCOCC2)nc2sc3c(c12)CCC3 [Compound Z31196583],8
5,O=C(COc1cccnc1[N+](=O)[O-])Nc1ccc2c(c1)OCCO2 [Compound Z24778709],9
6,Cc1ncc2c(n1)CCN(C(=O)NCc1cc(-c3ccccc3)no1)C2 [Compound Z558380580],1
7,CCN(CC)CCn1c(NC(=O)c2ccc(OCC(F)(F)F)nc2)nc2ccccc21 [Compound Z228032620],14
8,COc1ccc(Nc2nc(-c3ccc(Cl)s3)cs2)cc1 [Compound Z48857068],4
9,CN(C)c1nc(N)nc(CSCCOc2ccc(F)cc2)n1 [Compound Z197453372],-8
10,Cc1cc(/C(O)=C2\C(=O)C(=O)N(CCN3CCOCC3)C2c2ccc(F)cc2)ccc1OCC(C)C (centres unmarked) [Compound Z56865693],-1
11,COc1ccc2cc(C3(C)NC(=O)N(CN4CCN(C/C=C/c5ccccc5)CC4)C3=O)ccc2c1 (centres unmarked) [Compound Z44124119],1
12,COc1ccc(-c2cc(CSCC(=O)Nc3ccc4c(c3)CCC4)on2)cc1 [Compound Z317186982],-4
13,CNc1snc(C)c1C(=O)NC(C)c1sc(-c2ccc(F)cc2)nc1C (centres unmarked) [Compound Z1129440199],29
14,CCn1ncc2c(C(=O)N(C)C)cc(-c3cccs3)nc21 [Compound Z254580980],-9
15,O=C(COc1ccc(Br)cc1)Nc1cccc(Cn2ccnc2)c1 [Compound Z362662788],8
16,O=C1CC(C(=O)Nc2cc(CC3CCCCC3)[nH]n2)c2ccc(F)cc2N1 (centres unmarked) [Compound Z729744666],22
17,Cc1nc2cc(NC(=O)c3cc(C)n(-c4cccnc4)c3C)ccc2o1 [Compound Z395169542],6
18,Cc1cc(NC(=O)C(C)SCC(=O)Nc2cccc3ncccc23)no1 (centres unmarked) [Compound Z29903633],-3
19,O=C(NCCSCc1ccccc1)Nc1ccc(NC(=O)c2ccco2)cc1 [Compound Z412775020],44
20,O=C(O)c1cc(-c2ccccc2)nc2c1cnn2Cc1ccccc1Cl [Compound Z223844412],7
21,COC(=O)c1cc(-c2ccc(C)cc2)nc2c1cnn2C(C)C [Compound Z90671680],26
22,CCn1c(-c2ccccc2)c(C(=O)CSc2nnc(-c3cccnc3)n2N)c2ccccc21 [Compound Z54072868],-13

row,Compound,First screening IR (inhibition rate) [%]
1,Cc1ccccc1Nc1nc(N)nc(CSc2ccc(C(F)(F)F)cn2)n1 [Compound Z45354574],12
2,O=C(Cc1cn2ccsc2n1)NCCN1C(=O)S/C(=C/c2cccnc2)C1=O [Compound Z27116942],12
3,Cc1sc2ncnc(Nc3ccc4c(c3)OCO4)c2c1C [Compound Z31191207],14
4,Cc1ccc(C)c(Cn2c(N3CCN(C/C=C/c4ccccc4)CC3)nc3c2c(=O)[nH]c(=O)n3C)c1 [Compound Z237733700],36
5,Cc1c(NC(=O)C2CC(=O)N(c3ccc4c(c3)CCC4)C2)n[nH]c1C1CC1 (centres unmarked) [Compound Z954497746],-9
6,Cc1cc(C)cc(C(=O)N(c2cc(C)cc(C)c2)C2C=CS(=O)(=O)C2)c1 (centres unmarked) [Compound Z166605882],34
7,Nc1nc(NCC(=O)O)nc(NCC2CCCO2)c1[N+](=O)[O-] (centres unmarked) [Compound Z244561600],9
8,CN(CC(=O)Nc1cccc(F)c1)C(=O)c1cc2ccccc2cc1O [Compound Z26987740],21
9,O=C(Nc1ccc(N2CCOCC2)nc1)c1cc(-c2ccc(Cl)cc2)n[nH]1 [Compound Z229828974],8
10,CC(NC(=O)C(NC(=O)c1ccco1)C(C)C)c1ccc(-n2ccnc2)cc1 (centres unmarked) [Compound Z27306758],4
11,CC1(C)CN=C(N2CCN(C(=O)c3ccc(C(N)=O)cc3)CC2)S1 [Compound Z1250701189],3
12,Cc1cccc(/C=C/c2cc(C(=O)O)c3ccccc3n2)c1 [Compound Z46532935],46
13,CCCN(S(=O)(=O)c1ccc(C)cc1)S(=O)(=O)c1ccc(Cl)cc1 [Compound Z45422005],3
14,CC(SCc1nc(N)nc(N(C)C)n1)C(=O)Nc1ccc(F)cc1F (centres unmarked) [Compound Z197454476],-5
15,COCCN1C(=O)/C(=C/c2c(N3CCN(Cc4ccccc4)CC3)nc3ccc(C)cn3c2=O)SC1=S [Compound Z56850824],-11
16,Cc1c(C(=O)NCCOc2ccccc2F)[nH]c2c1C(=O)CCC2 [Compound Z51995316],36
17,Cl.Oc1ccccc1-c1cc(-c2ccccc2)c2cc(Cl)ccc2n1 [Compound Z48950876],3
18,O=C1Nc2ccccc2/C1=C\c1ccc(O)cc1 [Compound Z44305789],25
19,CCOC(=O)c1c(NC(=O)c2ccc(C(C)(C)C)cc2)n(CCCN2CCOCC2)c2nc3ccccc3nc12 [Compound Z56786201],4
20,O=C(Nc1ccc2nc(-c3ccco3)[nH]c2c1)c1ccc(Cl)nc1 [Compound Z757780044],51
21,Cc1cc(S(C)(=O)=O)c(C)c(S(=O)(=O)N2CCCCCC2)c1 [Compound Z1145185709],6
22,CCC(C)N(CC(=O)Nc1cccc(C)c1C)C(=O)COC(=O)c1cc(C(C)=O)cn1C (centres unmarked) [Compound Z152371002],-9

row,Compound,First screening IR (inhibition rate) [%]
1,CC(C)NC(=O)N1CCCCCC1C1CCN(c2ncc(C(N)=O)cc2Cl)CC1 (centres unmarked) [Compound Z1168219830],13
2,COc1ccc(Nc2ncnc(N)n2)cc1 [Compound Z56938001],14
3,O=S1(=O)CCC(SSC2CCS(=O)(=O)C2)C1 (centres unmarked) [Compound Z57056477],3
4,Cc1ccc(Nc2ncnc3sc4c(c23)CCCC4)c(O)c1 [Compound Z85929120],2
5,COc1ccc2c(c1)c(CC(=O)N1CCN(Cc3ccccc3)CC1)c(C)n2C(=O)c1ccc(Cl)cc1 [Compound Z27764077],10
6,COc1cc(NC(=O)c2cc(-c3ccccc3)nc3c2cnn3C(C)C)cc(OC)c1 [Compound Z52023681],-11
7,O=C(c1cc(Cc2ccccc2)ccc1O)N1CCN(Cc2ccon2)CC1 [Compound Z1285074692],21
8,CCCOc1c(Br)cc(C(=O)Nc2cccc(S(=O)(=O)N(CC)CC)c2)cc1OC [Compound Z30220173],20
9,FC(F)(F)c1ccnc(Nc2ccc3c(c2)OCO3)n1 [Compound Z285674740],21
10,CC(C)c1cc(NS(=O)(=O)c2cc(F)c(Br)cc2F)n[nH]1 [Compound Z1551172092],5
11,Cc1cc(-c2cc(C(=O)Nc3ccc(N4CCN(C)CC4)nc3)c3cnn(C(C)C)c3n2)c(C)o1 [Compound Z228220646],15
12,CC(C)CCc1nc(CN2C(=O)NC3(CCN(C(=O)OC(C)(C)C)CC3)C2=O)cs1 [Compound Z1262256786],-2
13,COc1cccc(/C(O)=C2\C(=O)C(=O)N(CCCn3ccnc3)C2c2cccc([N+](=O)[O-])c2)c1 (centres unmarked) [Compound Z316156320],-1
14,O=S(=O)(Nc1cnc2ccccc2c1)c1ccc(Cl)c(Cl)c1 [Compound Z246801514],3
15,Cc1ccc(O)c(-c2cc(-c3ccccc3)c3cc(Cl)ccc3n2)c1.Cl [Compound Z48950854],-11
16,O=C(Nc1ccc2ccccc2n1)c1ccc(OCc2cccnc2)cc1 [Compound Z339583070],-12
17,O=C(Nc1nnc(SCc2ccc(F)cc2)s1)c1cccnc1Cl [Compound Z28653555],3
18,CN(C)S(=O)(=O)c1cccc(CS(=O)(=O)c2ccccn2)c1 [Compound Z432528000],4
19,OCCn1ncc2c(NCCc3nnc4ccccn34)ncnc21 [Compound Z990848218],-6
20,COc1ccc(-c2cc(C(=O)Nc3ccc(N4CCN(C)CC4)cc3C)c3ccccc3n2)cc1OC [Compound Z27974061],3

# Same assay, conditions: second screening, dissolved from fresh powder; n = 4; 10 μmol L−1 compound
row,Compound,Second screening IR (inhibition rate) [%]
1,O=C(NCCSCc1ccccc1)Nc1ccc(NC(=O)c2ccco2)cc1 [Compound Z412775020],-16
